Survival data for one compound are collected here from ChEMBL document CHEMBL6182899, “Shooting an Arrow against Convulsion: Novel Triazole-Grafted Benzenesulfonamide Derivatives as Carbonic Anhydrase II and VII Inhibitors” (J Med Chem, 2025).

The structures appear in SMILES notation.

The species entered for the assay is Mus musculus. Put plainly: animal or person. The conditions noted are these: 24 h.

Take `CCCC(CCC)C(=O)O` [VALPROIC ACID]: the survival at 100 mg/kg was 80%.
